According to patent US20250127778A1, “CANCER IMMUNOTHERAPY COMPOSITION CONTAINING INTERACTION INHIBITOR OF STING AND TRIM29 AS ACTIVE INGREDIENT” (SPARK BIOPHARMA, INC, priority 2021, published 2025):

What was measured:
[1] = tested on: phosphorylation of downstream signaling proteins TBK1 and IRF3; assay: Western blotting of STING sub-immune signaling pathway activation; type: cell-based; details: cGAMP alone; FIG. 7
Description: First, the A431 cell line was seeded in a transparent 12-well plate and cultured for one day. Thereafter, the cells were treated with the compounds of Formulas 1 to 6, respectively, and then cultured for additional 24 hours. Finally, after supernatant culture medium of the cells was removed, the remaining supernatant was diluted and removed with PBS (phosphate buffer saline) to prepare a Western blotting sample. All procedures for preparing Western blotting sample were performed at 4° C. […] The protein concentration of the supernatant was measured by using the Micro BCA™ protein assay kit (ThermoFisher) according to the protocol of the manufacturer. […] The treated samples were analyzed by SDS-PAGE, then transferred to a PVDF membrane, and cultured in a TBST solution containing 4% BSA for 30 minutes. […] Finally, after four TBST washing processes, the solution was developed with an ECL (enhanced chemiluminescence) prime solution of Amersham, the chemical luminescence signal was measured by using ChemiDoc MP of Bio-Rad Laboratories, Inc., the obtained results were quantified by using the ImageLab 6.0 program, and the results were plotted by using the Prism 8.0 program. […]

[2] = Body weight and toxicity signals in CT26 syngeneic mouse model; type: in vivo; details: treated individually or in combination, FIG. 24
Description: 2×10^5 CT26 cell lines were prepared in 50 μL culture medium and subcutaneously injected. […] The cGAMP solution was manufactured with a final composition of PEG400:distilled water=40:60, and 20 μL was injected each time. The solution of the compound of Formula 1 was manufactured with the composition of DMSO:PEG400:distilled water=2:40:58, and 20 μL was injected each time. The cGAMP solution was injected once every two days, four times in total, and the solution of the compound of Formula 1 was injected once every four days, two times in total, starting with the second administration of cGAMP. The size of the tumor was measured by using calipers every two days, and the volume thereof was calculated as (length×width×height/2). The body weight of the mice was also measured every two days.

Nc1nc2c(ncn2[C@@H]2O[C@@H]3COP(=O)(O)O[C@H]4[C@@H](O)[C@H](n5cnc6c(N)ncnc65)O[C@@H]4COP(=O)(O)O[C@@H]2[C@@H]3O)c(=O)[nH]1 [cGAMP, 2′,3′-Cyclic GMP-AMP, reference compound]
phosphorylation of TBK1 and IRF3 [1]: increased
body weight change or signal of toxicity [2]: significant change in body weight or signal of toxicity was not observed
